Measurements: patent publication US20230348564A1, “ANTI-CANCER PROTEINS” (UNICHEM LABORATORIES LTD, priority 2020, published 2023)

Experiments:
Astrocytoma (U87MG) = test: cytotoxicity in Brain Tumor Cell lines by MTT assay; settings: 0.1 Mm-100 μM, 72 h
Meningioma (IOMM-Lee) = test: as above; settings: 0.1 Mm-100 μM, 72 h
PANC-1 = test: Annexin-V staining (flow cytometry); assay type: cell-based, Human; settings: 24 h
Description: (§1) The cell lines were maintained in DMEM+10% FBS (heat inactivated) at 37° C. with 5% CO2, and 95% humidity. Antibiotics Penicillin (100 U/mL) and Streptomycin (100 μg/mL) were added to the medium.
(§2) The stock solution of recombinant lectin having the amino acid sequence of SEQ ID NO. […] Doxorubicin was used as positive control and stock solution was prepared in DMSO.
(§3) Cells were counted using hemocytometer and plated in culture plates at the density of 0.4×10^6 cells/well in DMEM+10% FBS in 6-well plates. Cells were incubated overnight to allow the cell recovery and exponential growth. Following overnight incubation, cells were treated with Lectin having the amino acid sequence of SEQ ID NO. 2 in DMEM+0% FBS at concentrations ranging from 2.5 μg/mL to 80 μg/mL. Untreated cells were included as Control group for sample. Cells treated with Doxorubicin were included as Positive Control group. DMSO treated cells were included as control group for Doxorubicin. After treatment, cells were incubated for a time period of 24 h.
(§4) Following incubation, the pro-apoptotic effect was estimated using Annexin assay kit as follows: Annexin reagent contains Annexin-V+7-AAD stain, which differentially labels apoptotic cells in different phases. Four populations of cells can be determined from the flow cytometric plots as follows: • a) Upper Left (UL)—7-AAD(+)/Annexin(−) or Necrotic cells • b) Upper Right (UR)—7-AAD(+)/Annexin(+) or Late apoptotic cells • c) Lower Left (LL)—7-AAD(−)/Annexin(−) or Viable/non-apoptotic cells • d) Lower Right (LR)—7-AAD(−)/Annexin(+) or Early apoptotic cells
(§5) Cells were gently harvested into pre-labeled sterile centrifuge tubes and centrifuged at 300×g for 5-7 min. Supernatant were discarded and the pellet was resuspended in 200 μl of fresh culture medium.
(§6) 100 μl of cell suspension was transferred into pre-labeled sterile centrifuge tubes.
(§7) 100 μl of Annexin-V reagent was added to each tube and incubated for 30 min at RT in dark.
(§8) Cells stained for Annexin-V were then transferred into 96-well plates and acquired on flow cytometer (Guava technologies). Percentage of cells in early apoptotic, late apoptotic and necrotic phase were determined.
(§9) Fold increase in apoptotic cells (treated with Test Items) was determined as compared to Control (untreated cells).

MDA-MB-231 = test: Annexin-V staining (flow cytometry); assay type: cell-based, Human; settings: 24 h
Description: as §1, §2, §3, §4, §5, §6, §7, §8, §9

[1] = system: VEGF release in MDA-MB-231 cells; test: VEGF secretion in cancer cells (Human VEGF ELISA); assay type: cell-based; settings: 24 h
Description: (§10) The cell lines were maintained in DMEM+10% […] (heat inactivated) at 37° C. with 5% CO2, and 95% humidity. Cells were counted and plated in 6-well plates for 24 h at a density of 0.5×10^6 cells/well. The cells were incubated overnight under growth conditions as described above so as to allow cell recovery and exponential growth. Cells were treated with each test item at different concentrations for 24h in serum free media. Doxorubicin was used as positive control. Secreted levels of VEGF were determined in supernatants after 24 hours using Human VEGF ELISA kit (R&D systems) as per manufacturer's protocol. Change in VEGF levels corresponding to each treatment was calculated using the following formula: […]

[2] = system: VEGF release in PANC-1 cells; test: VEGF secretion in cancer cells (Human VEGF ELISA); assay type: cell-based; settings: 24 h
Description: as §10

[3] = system: PBMCs (Peripheral blood mononuclear cells); test: MTT cytotoxicity assay; settings: SEQ ID NO. 2 80 μg/ml, doxorubicin 75 μM; 48h
Description: (§11) All the cancer cell lines were procured from National Centre for Cell Science, Pune (India). Cell lines were maintained under conditions as mentioned in Table 23. The cell lines were sub-cultured by trypsinization followed by splitting the cell suspension into fresh flasks and supplementing with fresh culture medium.
(§12) All the cell lines were grown in specified media at 37° C. with 95% Humidity and 5% CO2.
(§13) The cells were trypsinized, counted by Trypan blue method in Neuebauer's Chamber and plated in wells of flat bottom 96-well plate at the density corresponding to 10×10^3 cells/well/200 μL medium.
(§14) Following overnight incubation, the media in the plate was replenished with 180 μL/well and then the cells were treated with 20 μL of each test item at concentrations ranging from 2.5 μg/mL-80 μg/mL in triplicates, so that the total volume in each well is 200 μL.
(§15) The untreated cells served as negative control. The cells were incubated with the test items or positive control for a time period of 48h. Following incubation, the cell cytotoxicity was estimated using MTT assay. Absorbance was measured at 540 nm. The percentage cytotoxicity corresponding to each treatment was calculated using the formula:
(§16) % Cytotoxicity=(1−X/R)*100
(§17) Where X=absorbance of wells corresponding to treated cells R=absorbance of untreated cells (cells maintained in growth medium only)
(§18) IC50 value was calculated using Graph-Pad Prism version 4.01 software.

[4] = system: MDA-MB-231 (Human breast adenocarcinoma); test: MTT cytotoxicity assay; settings: SEQ ID NO. 2 80 μg/ml, doxorubicin 75 μM; 48h
Description: as §11, §12, §13, §14, §15, §16, §17, §18

[5] = system: MIA PaCa-2 (Human pancreatic carcinoma); test: MTT cytotoxicity assay; settings: SEQ ID NO. 2 80 μg/ml, doxorubicin 75 μM; 48h
Description: as §11, §12, §13, §14, §15, §16, §17, §18

[6] = system: T24 (Human Bladder Cancer); test: MTT cytotoxicity assay; settings: SEQ ID NO. 2 80 μg/ml, doxorubicin 75 μM; 48h
Description: as §11, §12, §13, §14, §15, §16, §17, §18

[7] = system: T-47D (Human mammary gland ductal carcinoma); test: MTT cytotoxicity assay; settings: SEQ ID NO. 2 80 μg/ml, doxorubicin 75 μM; 48h
Description: as §11, §12, §13, §14, §15, §16, §17, §18

[8] = system: MCF-7 (Human breast adenocarcinoma); test: MTT cytotoxicity assay; settings: SEQ ID NO. 2 80 μg/ml, doxorubicin 75 μM; 48h
Description: as §11, §12, §13, §14, §15, §16, §17, §18

[9] = system: MDA-MB-453 (Human breast metastatic carcinoma); test: MTT cytotoxicity assay; settings: SEQ ID NO. 2 80 μg/ml, doxorubicin 75 μM; 48h
Description: as §11, §12, §13, §14, §15, §16, §17, §18

[10] = system: PANC-1 (Human pancreatic epitheloid carcinoma); test: MTT cytotoxicity assay; settings: SEQ ID NO. 2 80 μg/ml, doxorubicin 75 μM; 48h
Description: as §11, §12, §13, §14, §15, §16, §17, §18

Q: COc1cccc2c1C(=O)c1c(O)c3c(c(O)c1C2=O)C[C@@](O)(C(=O)CO)C[C@@H]3O[C@H]1C[C@H](N)[C@H](O)[C@H](C)O1 [Doxorubicin, reference compound] was tested. Which “% of cytotoxicity” value (Astrocytoma (U87MG)) did it give?
A: The value was 46.6%-72.4%.

Q: What about the “% of cytotoxicity” value (Meningioma (IOMM-Lee)) of the same compound?
A: Its value is 46.6%-54.5%.

Q: And the “% Population of cells, LL Annex− 7AAD− Viable” value (PANC-1; 10 μM)?
A: Its value is 25.6%.

Q: And the “% Population of cells, LR Annex+ 7AAD− Early apoptotic” value (PANC-1; 10 μM)?
A: The value was 6.0%.

Q: And the “% Population of cells, UL Annex− 7AAD+ Necrotic” value (PANC-1; 10 μM)?
A: Its value is 0.5%.

Q: And the “% Population of cells, UR Annex+ 7AAD+ Late apoptotic” value (PANC-1; 10 μM)?
A: Its value is 67.9%.

Q: What about the “% Population of cells, LL Annex− 7AAD− Viable” value (PANC-1; 100 μM) of the same compound?
A: The value was 1.3%.

Q: What about the “% Population of cells, LR Annex+ 7AAD− Early apoptotic” value (PANC-1; 100 μM) of the same compound?
A: Its value is 1.9%.

Q: And the “% Population of cells, UL Annex− 7AAD+ Necrotic” value (PANC-1; 100 μM)?
A: Its value is 0.1%.

Q: And the “% Population of cells, UR Annex+ 7AAD+ Late apoptotic” value (PANC-1; 100 μM)?
A: Its value is 96.6%.

Q: What about the “% Population of cells, LL Annex− 7AAD− Viable” value (MDA-MB-231; 10 μM) of the same compound?
A: The value was 0.7%.

Q: What about the “% Population of cells, LR Annex+ 7AAD− Early apoptotic” value (MDA-MB-231; 10 μM) of the same compound?
A: Its value is 6.8%.

Q: What about the “% Population of cells, UL Annex− 7AAD+ Necrotic” value (MDA-MB-231; 10 μM) of the same compound?
A: Its value is 0.0%.

Q: What about the “% Population of cells, UR Annex+ 7AAD+ Late apoptotic” value (MDA-MB-231; 10 μM) of the same compound?
A: Its value is 92.5%.

Q: And the “% Population of cells, LL Annex− 7AAD− Viable” value (MDA-MB-231; 100 μM)?
A: The value was 0.0%.

Q: And the “% Population of cells, LR Annex+ 7AAD− Early apoptotic” value (MDA-MB-231; 100 μM)?
A: Its value is 0.0%.

Q: What about the “% Population of cells, UL Annex− 7AAD+ Necrotic” value (MDA-MB-231; 100 μM) of the same compound?
A: The value was 0.0%.

Q: And the “% Population of cells, UR Annex+ 7AAD+ Late apoptotic” value (MDA-MB-231; 100 μM)?
A: Its value is 100.0%.

Q: And the “Average absorbance at 450 nM” value ([1]; 10 μM)?
A: Its value is 0.176.

Q: What about the “Percentage decrease in VEGF levels” value ([1]; 10 μM) of the same compound?
A: Its value is 89.2%.

Q: And the “VEGF level” value ([1]; 10 μM)?
A: Its value is 49.9 pg/mL.

Q: And the “Average absorbance at 450 nM” value ([1]; 100 μM)?
A: Its value is 0.145.

Q: And the “Percentage decrease in VEGF levels” value ([1]; 100 μM)?
A: The value was 93.7%.

Q: And the “VEGF level” value ([1]; 100 μM)?
A: The value was 29.0 pg/mL.

Q: What about the “Average absorbance at 450 nM” value ([2]; 10 μM) of the same compound?
A: The value was 0.506.

Q: What about the “Percentage decrease in VEGF levels” value ([2]; 10 μM) of the same compound?
A: The value was 73.6%.

Q: What about the “VEGF level” value ([2]; 10 μM) of the same compound?
A: Its value is 269.7 pg/mL.

Q: What about the “Average absorbance at 450 nM” value ([2]; 100 μM) of the same compound?
A: The value was 0.483.

Q: And the “Percentage decrease in VEGF levels” value ([2]; 100 μM)?
A: Its value is 75.1%.

Q: And the “VEGF level” value ([2]; 100 μM)?
A: The value was 254.6 pg/mL.

Q: And the “Cytotoxicity at highest concentration tested” value [3]?
A: Its value is 32.0%.

Q: And the “Cytotoxicity at highest concentration tested” value [4]?
A: Its value is 50.2%.

Q: And the “Cytotoxicity at highest concentration tested” value [5]?
A: The value was 63.9%.

Q: What about the “Cytotoxicity at highest concentration tested” value [6] of the same compound?
A: The value was 54.4%.

Q: What about the “Cytotoxicity at highest concentration tested” value [7] of the same compound?
A: Its value is 51.1%.

Q: And the “Cytotoxicity at highest concentration tested” value [8]?
A: Its value is 64.9%.

Q: What about the “Cytotoxicity at highest concentration tested” value [9] of the same compound?
A: The value was 71.4%.

Q: And the “Cytotoxicity at highest concentration tested” value [10]?
A: Its value is 65.1%.
